{"source": "patent US20020040203A1", "about": "“Method for transdermal or intradermal delivery of molecules” (priority 2000, published 2002)", "key": {"[1]": {"conditions": "cited from earlier work; for charge: pH 8 stated for PP-IX"}, "[2]": {"test": "Transport of model molecules through heat-stripped porcine stratum corneum by electroporation, Hanson Vertical Diffusion chamber", "type": "in vitro ADME", "conditions": "for transport across the SC to the acceptor chamber: negative pulses 375V, 1 msec, 1 Hz, up to 30 min", "description": "Stratum corneum layer was obtained from porcine skin by heat treatment as follows. Fresh pieces of porcine skin were wrapped in aluminum foil and placed in a 60° C. water bath for 5 minutes. The SC was gently pulled away from the remaining tissue. The SC can be used directly or stored on glass microscope slides at 4° C. The SC was then used in a Hanson Vertical Diffusion chamber. This simple device is an accepted model system for studying transport through skin by those skilled in the art. This device contains two compartments which are filled with a suitable buffer (10 mM Tris, 100 mM NaCl, 1 mM EDTA at pH 8.0). One of the compartments acts as the donor and the other as the acceptor. The liposomes and the test molecule are added to the donor chamber. The outermost layer of the skin, the SC forms an effective barrier to the transport of biomolecules. The upper chamber was considered as the outer surface of the skin and the lower chamber as the skin directly below the SC. Platinum wires served as electrodes, one was placed in the upper chamber and the other in the lower chamber. Electric pulses were applied across the SC using a pulse generator.\nLipid formulations were prepared as follows. Dioleylphosphatidylglycerol and dioleylphosphatidyl choline was mixed at an approximate 1:1 molar ratio and dispersed in buffer by vigorous vortexing resulting in the formation of multilamellar lipid vesicles (MLV). The molecular weights of the molecules tested range from 200 to 600. The model molecules were chosen for their charge and their respective solubility.\n[…] The model molecule as a solution in buffer was then added to the upper chamber. During the next 10 min no pulses were applied. An aliquot of the buffer was removed from the lower (acceptor) chamber. Pulses were next applied for 10, 20 and 30 min and aliquots removed from the lower chamber for analysis at 10, 20 and 30 min to determine delivery of the model molecule. Another aliquot was removed from the lower chamber 10 min after cessation of pulse application. In control studies, the SC was pre-pulsed for 10 min with buffer only (no lipid) and then the model molecule added in the upper chamber and pulsed for three further periods of 10 min each.\nThe amount of the model molecule transported to the acceptor chamber was measured in the aliquots removed at different times by using fluorescence spectroscopy."}, "[3]": {"conditions": "cited from earlier work"}, "[4]": {"conditions": "SC pre-treated with DOPG:DOPC lipid formulation"}, "[5]": {"conditions": "absence of lipid formulation (pre-pulsed with buffer only)"}}, "data": [{"molecule": "C=CC1=C(C)c2cc3[nH]c(cc4nc(cc5[nH]c(cc1n2)c(C)c5CCC(=O)O)C(CCC(=O)O)=C4C)c(C)c3C=C", "note": "[PP-IX, protoporphyrin IX]", "values": [{"measurement": "solubility", "setting": "[1]", "result": "low solubility"}, {"measurement": "transport across the SC to the acceptor chamber", "setting": "[2]; [4]", "result": "an increase in the transport in the presence of the added lipid"}, {"measurement": "transport across the SC to the acceptor chamber", "setting": "[2]; [5]", "result": "significant transport of PP-IX across the SC"}]}, {"molecule": "bleomycin", "values": [{"measurement": "log P (partition coefficient between octanol and water)", "setting": "[3]", "result": "very negative"}]}, {"molecule": "methylated protoprophyrin IX [MPP-IX]", "values": [{"measurement": "solubility", "setting": "[1]", "result": "soluble only in the presence of detergents"}, {"measurement": "charge", "setting": "[1]", "result": "no charge"}, {"measurement": "transport across the SC to the acceptor chamber", "setting": "[2]; [4]", "result": "enhanced transport"}, {"measurement": "transport across the SC to the acceptor chamber", "setting": "[2]; [5]", "result": "very low transport"}]}, {"molecule": "CN(C)c1ccc2nc3ccc(=[N+](C)C)cc-3sc2c1", "note": "[MB, Methylene Blue]", "values": [{"measurement": "charge", "setting": "[1]", "result": "positively charged"}, {"measurement": "transport across the SC to the acceptor chamber", "setting": "[2]; [4]", "result": "large amount of MB transported across the SC"}, {"measurement": "transport across the SC to the acceptor chamber", "setting": "[2]; [5]", "result": "very little MB present in the acceptor chamber"}, {"measurement": "concentration in the lower chamber after cessation of pulse application", "setting": "[2]; negative pulses, SC pre-treated with lipid formulation, 10 min without pulse", "result": "continued increase in MB concentration in the lower chamber"}, {"measurement": "effect of lipid formulation on transport", "setting": "[2]; pulses of positive polarity, DOPG:DOPC MLV present", "result": "inhibited the transport of MB"}]}]}
